Assay results from ChEMBL document CHEMBL1201862, “PubChem BioAssay data set” (2004).
Calls of active or inactive are those of the source.

Assays:
[1] = P. falciparum Dd2 growth inhibitors, dose response, SYBR Green, cherry-picked samples (AID 1159567); format: functional, cell-based
[2] = target: T1, fMet-Leu-Phe receptor (Homo sapiens, UniProt P21462); test: formyl peptide receptor binders – dose response (AID 519); format: functional
T1 sequence (P21462 whole entry): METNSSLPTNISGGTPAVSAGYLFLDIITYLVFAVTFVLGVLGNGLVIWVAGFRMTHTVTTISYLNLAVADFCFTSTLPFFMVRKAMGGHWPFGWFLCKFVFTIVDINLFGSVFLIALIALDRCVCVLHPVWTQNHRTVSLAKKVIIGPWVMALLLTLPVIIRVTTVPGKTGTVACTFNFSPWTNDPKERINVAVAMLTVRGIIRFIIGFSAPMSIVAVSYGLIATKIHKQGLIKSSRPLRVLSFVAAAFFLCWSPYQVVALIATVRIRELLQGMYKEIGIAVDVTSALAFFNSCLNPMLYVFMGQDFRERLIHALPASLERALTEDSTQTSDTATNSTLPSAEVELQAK

[3] = target: T2, Fatty acid synthase (Homo sapiens, UniProt P49327); test: inhibition of human FAS-TE enzyme activity – biochemical, endpoint fluorescence intensity, uHTS hits, dose response (AID 624327); format: functional;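 also: fluorescence from hydrolysis of an O-methyl fluorescein acyl ester substrate by the enzyme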
T2 sequence (P49327 whole entry): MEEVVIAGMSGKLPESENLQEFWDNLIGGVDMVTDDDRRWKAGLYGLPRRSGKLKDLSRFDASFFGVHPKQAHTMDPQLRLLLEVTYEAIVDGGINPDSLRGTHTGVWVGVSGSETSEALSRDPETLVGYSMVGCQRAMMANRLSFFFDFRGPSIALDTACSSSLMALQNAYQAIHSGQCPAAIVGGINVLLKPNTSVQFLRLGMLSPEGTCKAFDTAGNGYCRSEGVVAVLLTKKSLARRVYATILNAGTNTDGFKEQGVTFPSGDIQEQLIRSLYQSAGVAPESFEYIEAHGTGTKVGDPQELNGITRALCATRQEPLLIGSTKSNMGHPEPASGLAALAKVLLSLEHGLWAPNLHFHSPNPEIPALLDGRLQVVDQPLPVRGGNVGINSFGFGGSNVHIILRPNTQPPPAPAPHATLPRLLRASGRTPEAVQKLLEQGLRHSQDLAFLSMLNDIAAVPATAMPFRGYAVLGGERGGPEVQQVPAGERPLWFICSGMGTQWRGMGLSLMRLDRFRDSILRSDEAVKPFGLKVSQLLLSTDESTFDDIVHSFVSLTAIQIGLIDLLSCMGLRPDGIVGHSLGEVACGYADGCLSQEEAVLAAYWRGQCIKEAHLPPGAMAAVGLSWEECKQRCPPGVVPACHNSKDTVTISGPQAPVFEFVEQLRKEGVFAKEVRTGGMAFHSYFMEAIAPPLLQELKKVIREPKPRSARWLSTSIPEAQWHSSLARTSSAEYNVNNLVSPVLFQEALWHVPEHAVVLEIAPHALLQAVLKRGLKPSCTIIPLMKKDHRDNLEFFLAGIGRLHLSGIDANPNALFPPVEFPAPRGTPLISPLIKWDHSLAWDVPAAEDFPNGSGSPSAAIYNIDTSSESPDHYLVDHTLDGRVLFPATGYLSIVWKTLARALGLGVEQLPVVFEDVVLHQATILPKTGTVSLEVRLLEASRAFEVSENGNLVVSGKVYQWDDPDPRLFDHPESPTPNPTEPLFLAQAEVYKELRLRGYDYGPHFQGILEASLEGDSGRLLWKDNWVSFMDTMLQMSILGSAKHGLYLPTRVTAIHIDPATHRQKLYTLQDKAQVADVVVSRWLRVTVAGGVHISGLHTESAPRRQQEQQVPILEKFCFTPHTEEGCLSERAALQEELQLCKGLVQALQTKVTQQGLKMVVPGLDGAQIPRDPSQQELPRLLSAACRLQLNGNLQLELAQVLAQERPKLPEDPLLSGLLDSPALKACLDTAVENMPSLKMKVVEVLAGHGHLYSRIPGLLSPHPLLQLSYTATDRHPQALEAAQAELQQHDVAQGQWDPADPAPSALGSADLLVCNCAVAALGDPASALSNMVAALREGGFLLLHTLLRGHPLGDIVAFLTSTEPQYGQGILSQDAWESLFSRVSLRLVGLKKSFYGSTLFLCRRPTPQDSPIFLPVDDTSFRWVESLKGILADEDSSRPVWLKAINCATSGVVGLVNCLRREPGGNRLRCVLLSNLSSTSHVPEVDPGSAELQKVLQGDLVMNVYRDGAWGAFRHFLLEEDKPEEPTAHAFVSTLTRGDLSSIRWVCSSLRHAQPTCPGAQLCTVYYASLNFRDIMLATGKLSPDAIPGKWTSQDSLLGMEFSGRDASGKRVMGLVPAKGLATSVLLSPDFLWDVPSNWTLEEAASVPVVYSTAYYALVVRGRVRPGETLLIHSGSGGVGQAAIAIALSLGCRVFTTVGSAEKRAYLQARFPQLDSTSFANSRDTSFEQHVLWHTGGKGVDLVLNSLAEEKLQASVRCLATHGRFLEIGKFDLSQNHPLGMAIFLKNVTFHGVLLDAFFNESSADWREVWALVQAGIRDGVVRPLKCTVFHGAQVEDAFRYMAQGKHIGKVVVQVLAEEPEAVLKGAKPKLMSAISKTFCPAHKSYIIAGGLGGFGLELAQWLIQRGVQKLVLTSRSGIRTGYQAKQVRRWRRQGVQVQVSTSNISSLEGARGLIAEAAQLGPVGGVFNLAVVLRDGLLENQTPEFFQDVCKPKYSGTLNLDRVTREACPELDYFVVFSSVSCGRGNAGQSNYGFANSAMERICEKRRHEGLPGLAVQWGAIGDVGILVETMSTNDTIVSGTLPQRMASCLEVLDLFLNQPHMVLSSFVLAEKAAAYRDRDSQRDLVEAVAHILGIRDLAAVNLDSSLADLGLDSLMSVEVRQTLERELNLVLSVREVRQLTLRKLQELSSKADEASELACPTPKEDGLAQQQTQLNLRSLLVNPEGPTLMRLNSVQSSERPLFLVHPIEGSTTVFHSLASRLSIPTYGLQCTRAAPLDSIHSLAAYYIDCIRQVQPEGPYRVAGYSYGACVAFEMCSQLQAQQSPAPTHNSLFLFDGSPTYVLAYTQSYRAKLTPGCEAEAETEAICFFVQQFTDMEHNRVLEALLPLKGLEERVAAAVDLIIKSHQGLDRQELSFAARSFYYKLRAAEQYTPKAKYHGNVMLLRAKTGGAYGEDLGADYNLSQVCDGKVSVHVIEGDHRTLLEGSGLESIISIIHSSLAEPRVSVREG

[4] = target: T2, Fatty acid synthase; test: inhibition of human FAS-TE enzyme activity – biochemical, kinetic fluorescence intensity, dose response (AID 624326); format: functional;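 also: rate of fluorescence rise from hydrolysis of a fluorogenic O-methyl fluorescein ester substrate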
[5] = reduced cellular PGC1a acetyl-lysine signal – cell-based, cherry-picked samples, dose response (AID 720514); format: functional;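 also: potency may reflect raised or lowered acetylation signal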

| Ki [2] | IC50 [3] | IC50 [4] | SMILES | other results |
| --- | --- | --- | --- | --- |
| – | – | – | CC(C)(C)[S@+]([O-])N1Cc2cc(C(=O)N[C@@H]3CCN(Cc4ccccc4)C3)nc(-c3cccc(-c4ccncc4)c3)c2[C@@H]1CCO | AC50 [1]: 4.68 µM (active) |
| > 66.7 µM (inactive) | – | – | Cc1cc2oc(C(=O)NC3CCS(=O)(=O)C3)c(C)c2cc1C (configuration not stated) | – |
| – | 7.69 µM (active) | 5.05 µM (active) | CC1=C(C(=O)OCC(Br)(Br)Br)C(c2cccc([N+](=O)[O-])c2)NC(=O)N1CCCC(=O)O (configuration not stated) | – |
| > 66.7 µM (inactive) | – | – | Fc1ccc(-c2nnc3ccc(N4CCCC4)nn23)cc1 | – |
| 45.7 µM (inactive) | – | – | CCCCn1c(NC(C)=O)c(C#N)c2nc3ccccc3nc21 | – |
| – | – | – | C[C@@H]1CN([C@H](C)CO)C(=O)c2cc(-c3ccc(C#N)cc3)cnc2O[C@H]1CN(C)C(=O)Nc1ccc(C(F)(F)F)cc1 | AC50 [1]: 21.2 µM (active) |
| – | 9.16 µM (active) | 9.62 µM (active) | COc1ccc([N+](=O)[O-])cc1NC(=O)CCC(=O)c1cccs1 | – |
| – | 16.7 µM (active) | 15.5 µM (active) | CCOC(=O)CC(NC(=O)c1cc2ccccc2oc1=O)c1cccc([N+](=O)[O-])c1 (configuration not stated) | – |
| – | – | – | COc1ccc(-c2cnc3c(c2)C(=O)N([C@H](C)CO)C[C@H](C)[C@@H](CN(C)C(=O)C2CCC2)O3)cc1 | AC50 [5]: 25.8 µM (active) |
